From patent publication US20220273637A1, “NOVEL PFAR-INHIBITING COMPOUNDS” (UNIVERSITE DE BRETAGNE OCCIDENTALE (UBO), priority 2019, published 2022)

tested on: PFAR (protein folding activity of ribosome); experiment: Inhibition of PFAR in yeast cells (LuxAB luciferase refolding after heat shock); assay type: cell-based; conditions: not given

Compound | inhibition of PFAR
c1ccc(CN(CC2=NCCN2)c2ccccc2)cc1 [antazoline] | do not inhibit PFAR
CN1C(=O)CN=C(c2ccccc2)c2cc(Cl)ccc21 [diazepam] | do not inhibit PFAR

tested on: PABPN1 aggregates; experiment: not given; assay type: cell-based, murine; conditions: not given

Compound | nuclei having aggregates of the PABPN1 protein | activity compared with guanabenz (positive control)
COc1ccc(CCN2CCC(Nc3nc4ccccc4n3Cc3ccc(F)cc3)CC2)cc1 [astemizole] | reduce the amount of muscle cell nuclei containing PABPN1 aggregates | –
CNCC[C@H](Oc1cccc2ccccc12)c1cccs1 [duloxetine] | reduce the amount of muscle cell nuclei containing PABPN1 aggregates | –
CN1CCCC(n2nc(Cc3ccc(Cl)cc3)c3ccccc3c2=O)CC1 (centres unmarked) [azelastine] | reduce the amount of muscle cell nuclei containing PABPN1 aggregates | –
CN1C(=O)CN=C(c2ccccc2)c2cc(Cl)ccc21 [diazepam] | negative | –
CN1CCC[C@@H]1CCO[C@](C)(c1ccccc1)c1ccc(Cl)cc1 [clemastine] | negative | –
CN1CCCC(CC2c3ccccc3Sc3ccccc32)C1 (centres unmarked) [metixene] | reduce the amount of muscle cell nuclei containing PABPN1 aggregates | more active than guanabenz
CSc1ccc2c(c1)N(CCC1CCCCN1C)c1ccccc1S2 (centres unmarked) [thioridazine] | reduce the amount of muscle cell nuclei containing PABPN1 aggregates | –
CN(C)CCCN1c2ccccc2Sc2ccc(C(F)(F)F)cc21 [triflupromazine] | negative | –
CC(C)(C)c1ccc(C(=O)CCCN2CCC(OC(c3ccccc3)c3ccccc3)CC2)cc1 [ebastine] | reduce the amount of muscle cell nuclei containing PABPN1 aggregates | –
CN(C)C(=O)C(CCN1CCC(O)(c2ccc(Cl)cc2)CC1)(c1ccccc1)c1ccccc1 [loperamide] | reduce the amount of muscle cell nuclei containing PABPN1 aggregates | –

tested on: Drosophila expressing PABPN1-17ala; experiment: Drosophila model of OPMD (PABPN1-17ala): abnormal wing position; assay type: in vivo; conditions: 2 mM in food, day 3 to day 6, chi-squared test
Description: The model used is a fruit fly model for OPMD in which the mammalian protein PABPN1 with a repetition of 17 alanines (PABPN1-17a1a) is specifically expressed in the muscles of Drosophila (Chartier et al. 2006; Chartier et al. 2015). These models reproduce the characteristics of the disease, i.e. weakness and progressive muscular degeneration, and also the formation of nuclear PABPN1 aggregates. Thus, the expression of PABPN1-17ala in the indirect wing muscles leads to an abnormal wing posture, resulting from the disorder of the muscle function and degeneration of the muscles (Chartier et al. 2006). […]
The compounds were administered in the food, prepared as follows: an instant Drosophila medium (Carolina Biological Supply Company) was reconstituted in each tube with a 1% solution of yeast in water, supplemented by the compounds dissolved in DMSO with an increasing concentration, or with DMSO alone. […] The effect of the compounds was quantified by the daily measurement of the number of flies presenting an abnormal wing posture, corresponding to the flies expressing PABPN1-17ala, from day 3 to day 6 of the adult age: groups of five males per condition are placed in an empty tube and the number of males having an abnormal wing position is recorded by direct observation of the flies in the tube, without anesthesia.

Compound | number of flies presenting an abnormal wing posture relative to DMSO
CN1CCCC(CC2c3ccccc3Sc3ccccc32)C1 (centres unmarked) [metixene] | significant reduction
